US20250090540A1, “PI3K-ALPHA INHIBITORS AND METHODS OF USE THEREOF” (Relay Therapeutics, Inc., priority 2021, published 2025)
pIC50: −log10 of the molar value.

Molecular target: H1047R PIK3CA enzyme (Homo sapiens, UniProt P42336, H1047R)
Assay: ADP-Glo Biochemical PIK3CA Kinase Assay
Settings: ADP-Glo biochemical PIK3CA kinase assay

H1047R PIK3CA enzyme, sequence (P42336 whole entry H1047R): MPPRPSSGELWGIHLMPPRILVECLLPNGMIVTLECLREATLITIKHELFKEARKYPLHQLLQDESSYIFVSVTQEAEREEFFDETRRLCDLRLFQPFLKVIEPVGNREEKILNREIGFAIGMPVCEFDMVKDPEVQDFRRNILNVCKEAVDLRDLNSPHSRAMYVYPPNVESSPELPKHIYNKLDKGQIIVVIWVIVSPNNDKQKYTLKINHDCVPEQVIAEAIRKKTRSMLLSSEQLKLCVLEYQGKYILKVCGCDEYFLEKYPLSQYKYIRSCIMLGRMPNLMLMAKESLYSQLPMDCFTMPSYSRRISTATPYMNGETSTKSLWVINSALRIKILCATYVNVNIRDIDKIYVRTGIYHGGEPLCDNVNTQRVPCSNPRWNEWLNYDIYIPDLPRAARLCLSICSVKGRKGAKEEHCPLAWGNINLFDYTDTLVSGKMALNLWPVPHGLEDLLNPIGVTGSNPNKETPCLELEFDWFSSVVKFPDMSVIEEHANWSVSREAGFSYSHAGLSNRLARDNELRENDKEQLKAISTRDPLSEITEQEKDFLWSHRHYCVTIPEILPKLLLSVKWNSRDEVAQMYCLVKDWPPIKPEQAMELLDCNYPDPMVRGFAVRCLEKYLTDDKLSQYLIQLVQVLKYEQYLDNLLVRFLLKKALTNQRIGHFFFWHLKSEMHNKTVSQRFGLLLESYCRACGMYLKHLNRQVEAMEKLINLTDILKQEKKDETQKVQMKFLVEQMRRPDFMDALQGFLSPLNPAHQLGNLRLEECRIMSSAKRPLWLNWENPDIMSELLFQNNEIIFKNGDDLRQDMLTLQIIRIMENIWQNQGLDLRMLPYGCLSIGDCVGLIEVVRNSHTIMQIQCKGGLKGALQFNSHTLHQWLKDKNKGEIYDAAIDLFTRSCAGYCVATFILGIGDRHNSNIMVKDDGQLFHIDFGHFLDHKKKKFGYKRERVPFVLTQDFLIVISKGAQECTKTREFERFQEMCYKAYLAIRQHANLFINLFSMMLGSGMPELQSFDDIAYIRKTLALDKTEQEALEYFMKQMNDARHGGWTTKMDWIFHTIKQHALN
H1047R PIK3CA enzyme, sequence (P27986 whole entry partner): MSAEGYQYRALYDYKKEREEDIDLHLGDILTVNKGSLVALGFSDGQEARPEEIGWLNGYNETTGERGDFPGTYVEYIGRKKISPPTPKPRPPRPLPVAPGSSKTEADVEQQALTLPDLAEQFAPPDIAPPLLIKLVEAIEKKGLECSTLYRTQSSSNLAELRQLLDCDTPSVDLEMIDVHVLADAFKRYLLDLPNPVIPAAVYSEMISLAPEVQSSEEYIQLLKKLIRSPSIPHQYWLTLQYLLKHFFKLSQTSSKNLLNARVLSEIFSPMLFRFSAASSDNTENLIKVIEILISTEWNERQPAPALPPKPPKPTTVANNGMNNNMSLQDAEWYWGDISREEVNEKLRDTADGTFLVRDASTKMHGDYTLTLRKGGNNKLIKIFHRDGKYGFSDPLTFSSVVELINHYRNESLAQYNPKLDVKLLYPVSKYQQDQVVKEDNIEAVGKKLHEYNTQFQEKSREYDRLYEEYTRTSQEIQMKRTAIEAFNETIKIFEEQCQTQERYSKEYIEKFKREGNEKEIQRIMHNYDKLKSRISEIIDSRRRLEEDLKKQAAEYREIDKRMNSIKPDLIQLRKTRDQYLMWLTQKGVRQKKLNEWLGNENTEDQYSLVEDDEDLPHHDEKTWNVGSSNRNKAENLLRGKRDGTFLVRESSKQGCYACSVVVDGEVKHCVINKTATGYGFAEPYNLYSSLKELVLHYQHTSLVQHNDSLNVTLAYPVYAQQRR

| Structure (SMILES) | pIC50 |
| --- | --- |
| Cc1ccccc1CNc1cccc(=O)n1Cc1ccccc1C [I-433] | 4.00 to 5.00 |
| CNC(=O)c1cnc(Nc2ccccc2C)c(NC(=O)CCc2ccccc2F)c1 [I-437] | 4.00 to 5.00 |
| CNC(=O)c1cnc(Nc2ccccc2C)c(NC(=O)c2ccnc3c(F)cccc23)c1 [I-438] | 4.00 to 5.00 |
| CNC(=O)c1cnc(Nc2ccccc2C)c(NC(=O)c2nn(C)c(C3CC3)c2F)c1 [I-439] | 4.00 to 5.00 |
| CNC(=O)c1cnc(Nc2ccccc2C)c(NC(=O)c2cc3c(C)cccc3[nH]2)c1 [I-440] | 4.00 to 5.00 |
| CNC(=O)c1cnc(Nc2ccccc2C)c(NC(=O)C2CCCCC2(F)F)c1 (centres unmarked) [I-441] | 4.00 to 5.00 |
| CNC(=O)c1cnc(Nc2ccccc2C)c(NC(=O)c2cc3cccc(F)c3s2)c1 [I-442] | 4.00 to 5.00 |
| CNC(=O)c1cnc(Nc2ccccc2C)c(NC(=O)c2cccnc2CS(C)(=O)=O)c1 [I-443] | 4.00 to 5.00 |
| CNC(=O)c1cnc(Nc2ccccc2C)c(NC(=O)c2ccnc3ccc(Br)cc23)c1 [I-444] | 4.00 to 5.00 |
| CNC(=O)c1cnc(Nc2ccccc2C)c(NC(=O)c2cccc(Cl)c2C)c1 [I-445] | 4.00 to 5.00 |
| CC#CCC(C(=O)Nc1cc(C(=O)NC)cnc1Nc1ccccc1C)c1ccccc1 (centres unmarked) [I-446] | 4.00 to 5.00 |
| CNC(=O)c1cnc(Nc2ccccc2C)c(NC(=O)c2ccc3c(c2)COC3)c1 [I-447] | 4.00 to 5.00 |
| CNC(=O)c1cnc(Nc2ccccc2C)c(NC(=O)c2cc(=O)[nH]c3ccccc23)c1 [I-448] | 4.00 to 5.00 |
| CNC(=O)c1cnc(Nc2ccccc2C)c(NC(=O)c2cc(Cl)n3ccccc23)c1 [I-449] | 6.30 to 7.00 |
| CNC(=O)c1cnc(Nc2ccccc2C)c(NC(=O)c2cc(C)nn2C(F)F)c1 [I-450] | 4.00 to 5.00 |
| CNC(=O)c1cnc(Nc2ccccc2C)c(NC(=O)c2cnc3cc(F)ccn23)c1 [I-451] | 4.00 to 5.00 |
| CNC(=O)c1cnc(Nc2ccccc2C)c(NC(=O)c2cc3c(Cl)cncc3s2)c1 [I-452] | 4.00 to 5.00 |
| CNC(=O)c1cnc(Nc2ccccc2C)c(NC(=O)c2ccc3ccccc3c2Br)c1 [I-453] | 4.00 to 5.00 |
| CNC(=O)c1cnc(Nc2ccccc2C)c(NC(=O)c2cccc(OC)c2F)c1 [I-454] | 4.00 to 5.00 |
| CNC(=O)c1cnc(Nc2ccccc2C)c(NC(=O)c2n[nH]c3ccc(C#N)cc23)c1 [I-455] | 4.00 to 5.00 |
| CNC(=O)c1cnc(Nc2ccccc2C)c(NC(=O)c2cc3cccc(Cl)c3s2)c1 [I-456] | 5.00 to 6.00 |
| CNC(=O)c1cnc(Nc2ccccc2C)c(NC(=O)c2nn(C(C)C)c3ccccc23)c1 [I-457] | 4.00 to 5.00 |
| CNC(=O)c1cnc(Nc2ccccc2C)c(NC(=O)CCc2c[nH]c3ccc(F)cc23)c1 [I-459] | 4.00 to 5.00 |

| Structure (SMILES) | pIC50 |
| --- | --- |
| CNC(=O)c1cnc(Nc2ccccc2C)c(NC(=O)c2cc(Br)cc3ccccc23)c1 [I-461] | 4.00 to 5.00 |
| CNC(=O)c1cnc(Nc2ccccc2C)c(NC(=O)c2cc3c(Cl)cccn3c2)c1 [I-462] | 4.00 to 5.00 |
| CNC(=O)c1cnc(Nc2ccccc2C)c(NC(=O)c2onc3c2CCCC3)c1 [I-463] | 4.00 to 5.00 |
| CNC(=O)c1cnc(Nc2ccccc2C)c(NC(=O)C2CCCC3CCCCC32)c1 (centres unmarked) [I-464] | 4.00 to 5.00 |
| CCc1c(Cl)c(C(=O)Nc2cc(C(=O)NC)cnc2Nc2ccccc2C)nn1C [I-465] | 4.00 to 5.00 |
| CNC(=O)c1cnc(Nc2ccccc2C)c(NC(=O)c2cccc(C#N)c2Cl)c1 [I-466] | 4.00 to 5.00 |
| CNC(=O)c1cnc(Nc2ccccc2C)c(NC(=O)Cc2c[nH]c3cc(F)c(F)cc23)c1 [I-467] | 4.00 to 5.00 |
| CNC(=O)c1cnc(Nc2ccccc2C)c(NC(=O)c2cnc3ccc(F)cn23)c1 [I-469] | 4.00 to 5.00 |
| CNC(=O)c1cnc(Nc2ccccc2C)c(NC(=O)c2cc(Cl)cc3cccnc23)c1 [I-470] | 4.00 to 5.00 |
| CNC(=O)c1cnc(Nc2ccccc2C)c(NC(=O)C(C)Cc2ccc(F)cc2)c1 (centres unmarked) [I-471] | 4.00 to 5.00 |
| CNC(=O)c1cnc(Nc2ccccc2C)c(NC(=O)c2nn(C)c3c2CCC3)c1 [I-472] | 4.00 to 5.00 |
| CNC(=O)c1cnc(Nc2ccccc2C)c(NC(=O)c2cn[nH]c2-c2ccc(F)cc2)c1 [I-473] | 4.00 to 5.00 |
| CNC(=O)c1cnc(Nc2ccccc2C)c(NC(=O)c2cccc3c2OC(C)(C)CC3)c1 [I-474] | 4.00 to 5.00 |
| CNC(=O)c1cnc(Nc2ccccc2C)c(NC(=O)C2(c3cccc(F)c3)CC2)c1 [I-475] | 5.00 to 6.00 |
| CNC(=O)c1cnc(Nc2ccccc2C)c(NC(=O)c2cc(Br)cc(C(C)C)c2)c1 [I-476] | 4.00 to 5.00 |
| CNC(=O)c1cnc(Nc2ccccc2C)c(NC(=O)C2CCc3cccc(Cl)c32)c1 (centres unmarked) [I-477] | 4.00 to 5.00 |
| CNC(=O)c1cnc(Nc2ccccc2C)c(NC(=O)c2cc(C)cc(OC)c2)c1 [I-478] | 4.00 to 5.00 |
| CNC(=O)c1cnc(Nc2ccccc2C)c(NC(=O)c2ccc(F)c(C)c2Cl)c1 [I-479] | 4.00 to 5.00 |
| CNC(=O)c1cnc(Nc2ccccc2C)c(NC(=O)c2cn(C)c3ncccc23)c1 [I-480] | 4.00 to 5.00 |
| CNC(=O)c1cnc(Nc2ccccc2C)c(NC(=O)C2(c3ccc(F)c(F)c3)CC2)c1 [I-481] | 4.00 to 5.00 |
| CNC(=O)c1cnc(Nc2ccccc2C)c(NC(=O)CC(C)Oc2ccccc2)c1 (centres unmarked) [I-482] | 4.00 to 5.00 |
| CNC(=O)c1cnc(Nc2ccccc2C)c(NC(=O)c2coc3cccc(Br)c23)c1 [I-483] | 4.00 to 5.00 |
| CNC(=O)c1cnc(Nc2ccccc2C)c(NC(=O)c2ccc(C(F)F)cn2)c1 [I-484] | 4.00 to 5.00 |

| Structure (SMILES) | pIC50 |
| --- | --- |
| CNC(=O)c1cnc(Nc2ccccc2C)c(NC(=O)c2cc3c(Br)cccc3[nH]2)c1 [I-485] | 4.00 to 5.00 |
| Cc1ccccc1Nc1ncc(C(=O)NC2CCOc3ccccc32)cc1NC(=O)c1csc2ccccc12 (centres unmarked) [I-487] | 4.00 to 5.00 |
| CNC(=O)c1cnc(Nc2ccccc2C)c(NC(=O)c2cc3cc(F)ccc3o2)c1 [I-488] | 4.00 to 5.00 |
| CNC(=O)c1cnc(Nc2ccccc2C)c(NC(=O)c2cc(C)c(F)c(C)c2)c1 [I-489] | 5.00 to 6.00 |
| CNC(=O)c1cnc(Nc2ccccc2C)c(NC(=O)c2ccc3occ(Cl)c3c2)c1 [I-490] | 4.00 to 5.00 |
| CNC(=O)c1cnc(Nc2ccccc2C)c(NC(=O)c2cc(C)cc(F)c2F)c1 [I-491] | 4.00 to 5.00 |
| CNC(=O)c1cnc(Nc2ccccc2C)c(NC(=O)c2ncsc2C(F)(F)F)c1 [I-492] | 4.00 to 5.00 |
| CNC(=O)c1cnc(Nc2ccccc2C)c(NC(=O)C2CCC(F)(F)CC2)c1 [I-493] | 4.00 to 5.00 |
| CNC(=O)c1cnc(Nc2ccccc2C)c(NC(=O)c2cccc3ccoc23)c1 [I-494] | 4.00 to 5.00 |
| CNC(=O)c1cnc(Nc2ccccc2C)c(NC(=O)c2cc(F)ccc2OC(F)(F)F)c1 [I-495] | 4.00 to 5.00 |
| CNC(=O)c1cnc(Nc2ccccc2C)c(NC(=O)CCc2cc(F)ccc2Br)c1 [I-497] | 4.00 to 5.00 |
| Cc1ccccc1Nc1ncc(C(=O)Nc2cnn3cccc(F)c23)cc1NC(=O)c1csc2ccccc12 [I-500] | 4.00 to 5.00 |
| CNC(=O)c1cnc(Nc2ccccc2C)c(NC(=O)Cc2cccc(Br)c2F)c1 [I-501] | 4.00 to 5.00 |
| CNC(=O)c1cnc(Nc2ccccc2C)c(NC(=O)Cc2ccc(F)cc2C(F)(F)F)c1 [I-502] | 4.00 to 5.00 |
| CNC(=O)c1cnc(Nc2ccccc2C)c(NC(=O)C2(c3cccc(Br)c3)CC2)c1 [I-503] | 4.00 to 5.00 |
| CNC(=O)c1cnc(Nc2ccccc2C)c(NC(=O)c2ccc3c(c2)CCN3C)c1 [I-504] | 4.00 to 5.00 |
| CNC(=O)c1cnc(Nc2ccccc2C)c(NC(=O)c2cc3ccccc3n2C)c1 [I-505] | 4.00 to 5.00 |
| CNC(=O)c1cnc(Nc2ccccc2C)c(NC(=O)c2cc3c(Cl)cc(Cl)cc3[nH]2)c1 [I-507] | 5.00 to 6.00 |
| CNC(=O)c1cnc(Nc2ccccc2C)c(NC(=O)c2cn3cccc(Br)c3n2)c1 [I-509] | 4.00 to 5.00 |
| Cc1ccccc1Nc1ncc(C(=O)NCC2(C#N)CCCC2)cc1NC(=O)c1csc2ccccc12 [I-511] | 4.00 to 5.00 |
| CCOc1c(F)c(F)cc(C(=O)Nc2cc(C(=O)NC)cnc2Nc2ccccc2C)c1F [I-512] | 4.00 to 5.00 |
| CNC(=O)c1cnc(Nc2ccccc2C)c(NC(=O)C2(c3cccc(Cl)c3)CC2)c1 [I-513] | 4.00 to 5.00 |
| CNC(=O)c1cnc(Nc2ccccc2C)c(NC(=O)c2c[nH]c3ccc(Cl)cc23)c1 [I-514] | 4.00 to 5.00 |

| Structure (SMILES) | pIC50 |
| --- | --- |
| CNC(=O)c1cnc(Nc2ccccc2C)c(NC(=O)c2ccc(Br)c3cccnc23)c1 [I-516] | 4.00 to 5.00 |
| CNC(=O)c1cnc(Nc2ccccc2C)c(NC(=O)CCc2cc(Cl)ccc2Cl)c1 [I-517] | 4.00 to 5.00 |
| CNC(=O)c1cnc(Nc2ccccc2C)c(NC(=O)c2cccc3ccn(C)c23)c1 [I-518] | 4.00 to 5.00 |
| Cc1ccccc1Nc1ncc(C(=O)Nc2c3c(nn2C)CCC3)cc1NC(=O)c1csc2ccccc12 [I-521] | 4.00 to 5.00 |
| CNC(=O)c1cnc(Nc2ccccc2C)c(NC(=O)c2[nH]c3ccccc3c2Br)c1 [I-522] | 4.00 to 5.00 |
| CNC(=O)c1cnc(Nc2ccccc2C)c(NC(=O)c2ccc3c(ccn3C)c2)c1 [I-523] | 4.00 to 5.00 |
| CNC(=O)c1cnc(Nc2ccccc2C)c(NC(=O)c2ccc(C(F)(F)F)n2C)c1 [I-524] | 4.00 to 5.00 |
| CNC(=O)c1cnc(Nc2ccccc2C)c(NC(=O)c2c[nH]c3cccc(Cl)c23)c1 [I-528] | 4.00 to 5.00 |
| CNC(=O)c1cnc(Nc2ccccc2C)c(NC(=O)c2cccc3c2OC(C)(C)C3)c1 [I-529] | 4.00 to 5.00 |
| Cc1ccccc1Nc1ncc(C(=O)NCC2CCC(F)(F)C2)cc1NC(=O)c1csc2ccccc12 (centres unmarked) [I-531] | 4.00 to 5.00 |
| Cc1ccccc1Nc1ncc(C(=O)N2CC(C)(F)C2)cc1NC(=O)c1csc2ccccc12 [I-536] | 5.00 to 6.00 |
| CNC(=O)c1cnc(Nc2ccccc2C)c(NC(=O)c2ccc(Cl)c(C)c2F)c1 [I-537] | 4.00 to 5.00 |
| COC1CN(C(=O)c2cnc(Nc3ccccc3C)c(NC(=O)c3csc4ccccc34)c2)C1 [I-541] | 5.00 to 6.00 |
| CNC(=O)c1cnc(Nc2ccccc2C)c(NC(=O)CCc2cc(Br)ccc2F)c1 [I-542] | 4.00 to 5.00 |
| Cc1ccccc1Nc1ncc(C(=O)N2CC(C)(C#N)C2)cc1NC(=O)c1csc2ccccc12 [I-543] | 5.00 to 6.00 |
| Cc1ccccc1Nc1c(NC(=O)c2csc3ccccc23)ccn(C)c1=O [I-548] | 5.00 to 6.00 |
| COc1ccc(SC2(C(=O)O)CC(=O)NC2c2ccccc2C)cc1 (centres unmarked) [I-549] | 5.00 to 6.00 |
| CNC(=O)c1cnc(NCCC#N)c(NC(=O)c2cc(F)cc(C(F)(F)F)c2)c1 [I-550] | 5.00 to 6.00 |
| CNC(=O)c1cnc(Nc2ccccc2C)c(NC(=O)c2csc3cncnc23)c1 [I-551] | 5.00 to 6.00 |
| Cc1ccccc1Nc1c(NC(=O)c2csc3ccccc23)ccc2cc[nH]c12 [I-552] | 5.00 to 6.00 |
